Patent US20230092001A1, “FURANEOL GLYCOSIDE COMPOUND, PHARMACEUTICAL COMPOSITION THEREOF, PREPARATION METHOD THEREFOR, AND APPLICATION THEREOF” (priority 2019, published 2023)

Tests used:
[1] = test system: ulcerative colitis model (dextran sodium sulphate); assay: Effect Example 3: therapeutic effect on ulcerative colitis, dextran sodium sulphate model, oral gavage, 7 days; format: in vivo, C57 mice; conditions: 40 mg/kg oral gavage; for Average colon length of mice: day 7
Description: Fifty 10-week-old male C57 mice, SPF class animal house, temperature 20-26° C., humidity 40%-70%, alternating light-dark periods (12 h/12 h).
(§1) Quarantine-qualified animals with similar weights were selected for the experiment.
Mice in the blank control group were given normal drinking water throughout the experiment. The other 9 groups of mice were given drinking water containing 2% dextran sodium sulphate from day 1 to day 7. All groups were administered by oral gavage once a day according to table 10, until the end of the experiment.
(§2) (1) The mice were weighed daily.
(2) Blood samples were collected from the orbital vein on day 7 and stored at −80° C.
(3) On day 7, the mice were sacrificed by cervical vertebra dislocation, the colon was removed and a small amount of fecal was taken from the colon and left as a sample. The colon length and colon weight were measured. A portion of the colon and the fecal sample was stored at −80° C.

[2] = test system: ulcerative colitis model (dextran sodium sulphate); assay: Effect example 2: therapeutic effect on ulcerative colitis, dextran sodium sulphate model, oral gavage, 14 days; format: in vivo, C57 mice; conditions: treatment group 40 mg/kg oral gavage
Description: Thirty-five 10-week-old male C57 mice, SPF class animal house, temperature 20-26° C., humidity 40%-70%, alternating light-dark periods (12 h/12 h).
as §1
Mice in the blank control group were given normal drinking water throughout the experiment. The other 6 groups of mice were given drinking water containing 2% dextran sodium sulphate from day 1 to day 5, normal drinking water from day 6 to day 7, drinking water containing 2% dextran sodium sulphate from day 8 to day 12, and normal drinking water from day 13 to day 14. The experiment ended on day 14. All groups were administered by oral gavage once a day according to table 7, until the end of the experiment on day 14.
as §2
(2) Blood samples were collected from the orbital vein on day 14 and stored at −80° C.
(3) On day 14, the mice were sacrificed by cervical vertebra dislocation, the colon was removed and a small amount of fecal was taken from the colon and left as a sample. The colon length and colon weight were measured. A portion of the colon and the fecal sample was stored at −80° C.

| Compound | Effect on the colon length (in words) [1] | Average weight of mice ([1]; Day 1) [g] | Average weight of mice ([1]; Day 2) [g] | Average weight of mice ([1]; Day 3) [g] | Average weight of mice ([1]; Day 4) [g] | Average weight of mice ([1]; Day 5) [g] | Average weight of mice ([1]; Day 6) [g] | Average weight of mice ([1]; Day 7) [g] | Average colon length of mice [1] [cm] | further results |
| --- | --- | --- | --- | --- | --- | --- | --- | --- | --- | --- |
| CC(=O)OC[C@H]1O[C@@H](OC2=C(C)OC(=C3CCNCC3)C2=O)[C@H](OC(C)=O)[C@@H](OC(C)=O)[C@@H]1OC(C)=O [Compound I-11] | can gradually restore the colon length | 21.62 | 21.30 | 21.10 | 20.97 | 20.32 | 19.93 | 19.30 | 6.2 |  |
| CC(=O)OC[C@H]1O[C@@H](OC2=C(C)OC(=C3CCN(C(C)=O)CC3)C2=O)[C@H](OC(C)=O)[C@@H](OC(C)=O)[C@@H]1OC(C)=O [Compound I-12] |  | 21.25 | 21.22 | 21.13 | 20.62 | 20.10 | 16.32 | 18.88 | 5.7 |  |
| CCOC(=O)OC[C@H]1O[C@@H](OC2=C(C)OC(=C(C)C)C2=O)[C@H](O)[C@@H](O)[C@@H]1O [Compound I-7] |  | 21.47 | 21.62 | 21.18 | 20.82 | 20.13 | 20.07 | 19.88 | 5.4 |  |
| CC(=O)OC[C@H]1O[C@@H](OC2=C(C)OC(=C(C)C)C2=O)[C@H](OC(C)=O)[C@@H](OC(C)=O)[C@@H]1OC(C)=O [Compound I-2, 4-O-[(2,3,4,6-tetra-O-acetyl)-β-D-glucosyl]-5-methyl-2-(1-methylethylidene)-3(2H)-furanone] |  | 21.53 | 21.42 | 21.25 | 20.97 | 20.72 | 20.27 | 19.27 | 5.8 | Average weight of mice ([2]; Day 1): 26.86 g; Average weight of mice ([2]; Day 2): 26.9 g; Average weight of mice ([2]; Day 3): 26.82 g; Average weight of mice ([2]; Day 4): 26.86 g; Average weight of mice ([2]; Day 5): 26.58 g; Average weight of mice ([2]; Day 6): 26.48 g; Average weight of mice ([2]; Day 7): 25.18 g; Average weight of mice ([2]; Day 8): 23.78 g; Average weight of mice ([2]; Day 9): 23.64 g; Average weight of mice ([2]; Day 10): 23.64 g; Average weight of mice ([2]; Day 11): 24.72 g; Average weight of mice ([2]; Day 12): 24.82 g; Average weight of mice ([2]; Day 13): 24.8 g; Average weight of mice ([2]; Day 14): 24.92 g; Average colon length of mice ([2]; day 14): 6.2 cm |
| CC(=O)OC[C@H]1O[C@@H](OC2=C(C)OC(=C3CCOCC3)C2=O)[C@H](OC(C)=O)[C@@H](OC(C)=O)[C@@H]1OC(C)=O [Compound I-10] |  | 21.95 | 21.60 | 21.18 | 21.27 | 20.90 | 20.13 | 19.25 | 5.8 |  |
| CC(=O)OC[C@H]1O[C@@H](OC2=C(C)OC(=C3CCCCC3)C2=O)[C@H](OC(C)=O)[C@@H](OC(C)=O)[C@@H]1OC(C)=O [Compound I-9] | can gradually restore the colon length | 21.20 | 21.17 | 20.92 | 20.47 | 20.03 | 19.42 | 19.38 | 6.3 |  |
| CC(=O)OC[C@H]1O[C@@H](OC2=C(C)OC(=C3CCCC3)C2=O)[C@H](OC(C)=O)[C@@H](OC(C)=O)[C@@H]1OC(C)=O [Compound I-8] | can gradually restore the colon length | 21.85 | 21.97 | 21.77 | 21.33 | 20.62 | 20.52 | 20.32 | 6.1 |  |
